What was measured:
Type in all cases: cell-based, human
[1] = tested on: A549 cells; test: 10-14 day Clonagenicity Assay (MTT), A549; conditions: for percentage survival relative to the missense, n = 1: independent experiment n = 1, dilution point of maximum toxicity; for percentage survival relative to the missense, n = 3: independent experiment n = 3, dilution point of maximum toxicity; for percentage survival relative to the missense, n = 2: independent experiment n = 2, dilution point of maximum toxicity
Procedure, shortened: (§1)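 Read-out is MTT conversion 10-14 days after siRNA transfection, expressed as average percentage viability relative to missense oligomer at the seed density of maximum toxicity. Oligomers were applied at 2 μg/ml for 4 hours to cells plated over six 1-in-2 dilutions. Cytotoxicity required reduced viability at two or more seed densities.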

[2] = tested on: PC3 cells; test: 10-14 day Clonagenicity Assay (MTT), PC3; conditions: for percentage survival relative to the missense, n = 2: independent experiment n = 2, dilution point of maximum toxicity; for percentage survival relative to the missense, n = 3: independent experiment n = 3, dilution point of maximum toxicity; for percentage survival relative to the missense, n = 1: independent experiment n = 1, dilution point of maximum toxicity
From the text: The Clonagenicity Assay represents a Cell Viability Screen that allows assessment of a cytotoxic insult at a variety of seed densities of cancer cell lines over an extended period of logarithmic growth, such that the definitive effect of the test substance can be accurately quantified. In this instance, the ‘cytotoxic insult’ to be tested involves the transfection of siRNA Oligomers to knockdown the expression of novel target Kinases and GPCRs as outlined previously. Cell number is quantified 10-14 days post siRNA transfection by MTT conversion as described in detail in Example 6.
The Clonagenicity Assay is optimised for each cell line examined with respect to seed number. The seed number varies for each cell line and accounts for the differences in cell size, growth rate and sensitivity to transfection-induced toxicity for each cell line pursued. Cells lines given as models for this example include HCT15, MCF7, A549, SKOV3, DU145, U251, PC3, A498 and HeLa. The siRNA oligo to Survivin serves as a positive control for toxicity in this assay and the missense control oligomer acts as a negative control as described in detail in Examples 5 and 6. The c-Raf, BCL2 and PI3K siRNA oligomers serve as additional controls as previously mentioned. The Clonagenicity assay is performed as outlined below.
Cells are seeded into a 96-well plate as described below and allowed to adhere overnight at 37° C. in a humidified atmosphere containing 5% CO2 in air. Wells are seeded with an appropriate cell number (cell line dependent) in Column 1 of the 96 well plates and this cell suspension is diluted 1 in 2 across the 96 well plates from Column 1 through to 6 (represented on the x-axis in results). Cells are next transfected with siRNA Oligomers, at a concentration of 2 μg/ml, against the genes of interest. Transfections continue for 4 hrs after which the transfection solution is removed and cells are refed with fresh medium and allow to incubate overnight. An additional media change@24 hrs post transfection is made to minimise toxicity of the transfection reagent. Cells are subsequently incubated for a 10-14 Day period post transfection at a 37° C. incubation as described above. Medium is renewed weekly following which MTT quantification is performed as described in Example 5.
To be considered cytotoxic, the siRNA Oligo against the gene target must induce a decreased viability in a cell line across at least 2 seed densities in the clonagenicity assay, such that a significant difference between the target gene and MS is observed i.e. no crossing of the Standard Error bars is detected. The average percentage viability, relative to missense, is recorded for the dilution point at which Maximum Toxicity is induced is recorded in Table 13.
Table 13 Clonagenicity Assay—This table gives the average percentage survival of the indicated cell lines relative to the missense in a clonagenicity assay, over 3 independent experiments. As an internal reference, the known survival gene ‘Survivin’, BCL2, c-Raf and PI3KR1 was also targeted by siRNA. When no Cytotoxic response is detected ‘-’ is recorded.

[3] = tested on: HCT15 cells; test: 10-14 day Clonagenicity Assay (MTT), HCT15; conditions: for percentage survival relative to the missense, n = 1: independent experiment n = 1, dilution point of maximum toxicity; for percentage survival relative to the missense, n = 2: independent experiment n = 2, dilution point of maximum toxicity
Procedure, shortened: as §1

Substance | percentage survival relative to the missense, n = 1 [1] [%] | percentage survival relative to the missense, n = 3 [1] [%] | percentage survival relative to the missense, n = 2 [2] [%] | percentage survival relative to the missense, n = 3 [2] [%] | percentage survival relative to the missense, n = 1 [3] [%] | percentage survival relative to the missense, n = 2 [3] [%] | percentage survival relative to the missense, n = 1 [2] [%] | percentage survival relative to the missense, n = 2 [1] [%]
siRNA FLT4: sense GUACGGCAACCUCUCCAACtt, antisense GUUGGAGAGGUUGCCGUACtt (sense GUACGGCAACCUCUCCAACTT; antisense GUUGGAGAGGUUGCCGUACTT; chemistry not given here) | 45.4 | 28.7 | 71.7 | 8.4 | 64.5 | 48.1 | – | –
siRNA MAK: sense GAAGCCAAGCAUGGGUGUUtt, antisense AACACCCAUGCUUGGCUUCtt (sense GAAGCCAAGCAUGGGUGUUTT; antisense AACACCCAUGCUUGGCUUCTT; chemistry not given here) | 51.6 | 42.8 | – | – | 75.9 | 67.3 | 69.6 | –
siRNA MPSK1: sense GGGUUAUGCCCACAGAGACtt, antisense GUCUCUGUGGGCAUAACCCtt (sense GGGUUAUGCCCACAGAGACTT; antisense GUCUCUGUGGGCAUAACCCTT; chemistry not given here) | – | – | – | – | 68.3 | – | – | –
siRNA NTKL: siRNA duplex, sense UGUGGAGCUGAUGAAGCACtt, antisense GUGCUUCAUCAGCUCCACAtt; same in Tables 9 and 11 (sense UGUGGAGCUGAUGAAGCACTT; antisense GUGCUUCAUCAGCUCCACATT; chemistry not given here) | 18.9 | 28.1 | 45.7 | 14.4 | 59.5 | 55.3 | 11.6 | 45.3
siRNA ROCK: siRNA duplex, sense UACAUGCCUGGUGGAGAUCtt, antisense GAUCUCCACCAGGCAUGUAtt; same in Tables 9 and 11 (sense UACAUGCCUGGUGGAGAUCTT; antisense GAUCUCCACCAGGCAUGUATT; chemistry not given here) | 16.3 | 16.8 | 32.3 | 22.8 | 61.9 | 34.6 | 50.4 | 28.4
